Measured values taken from article PMC3125149, “SCYX-7158, an Orally-Active Benzoxaborole for the Treatment of Stage 2 Human African Trypanosomiasis” (PLoS Neglected Tropical Diseases, 2011).
Converted amounts (≈) assume the structure as drawn.

How the values were obtained:
[1] = Tolerability in mice during efficacy studies; format: in vivo; settings: doses up to 100 mg/kg BID (200 mg/kg/day), highest dose administered
Aqueous solubility = format: physicochemical; settings: pH 7.4 PBS
From the text: (§1) Table 3 In vitro physicochemical and ADME properties of SCYX-7158. | column: Value

hERG potassium channel = hERG potassium channel (Homo sapiens, UniProt Q12809); assay: hERG radioligand binding assay; settings: at 10 µM
Sequence of hERG potassium channel (Q12809 whole entry): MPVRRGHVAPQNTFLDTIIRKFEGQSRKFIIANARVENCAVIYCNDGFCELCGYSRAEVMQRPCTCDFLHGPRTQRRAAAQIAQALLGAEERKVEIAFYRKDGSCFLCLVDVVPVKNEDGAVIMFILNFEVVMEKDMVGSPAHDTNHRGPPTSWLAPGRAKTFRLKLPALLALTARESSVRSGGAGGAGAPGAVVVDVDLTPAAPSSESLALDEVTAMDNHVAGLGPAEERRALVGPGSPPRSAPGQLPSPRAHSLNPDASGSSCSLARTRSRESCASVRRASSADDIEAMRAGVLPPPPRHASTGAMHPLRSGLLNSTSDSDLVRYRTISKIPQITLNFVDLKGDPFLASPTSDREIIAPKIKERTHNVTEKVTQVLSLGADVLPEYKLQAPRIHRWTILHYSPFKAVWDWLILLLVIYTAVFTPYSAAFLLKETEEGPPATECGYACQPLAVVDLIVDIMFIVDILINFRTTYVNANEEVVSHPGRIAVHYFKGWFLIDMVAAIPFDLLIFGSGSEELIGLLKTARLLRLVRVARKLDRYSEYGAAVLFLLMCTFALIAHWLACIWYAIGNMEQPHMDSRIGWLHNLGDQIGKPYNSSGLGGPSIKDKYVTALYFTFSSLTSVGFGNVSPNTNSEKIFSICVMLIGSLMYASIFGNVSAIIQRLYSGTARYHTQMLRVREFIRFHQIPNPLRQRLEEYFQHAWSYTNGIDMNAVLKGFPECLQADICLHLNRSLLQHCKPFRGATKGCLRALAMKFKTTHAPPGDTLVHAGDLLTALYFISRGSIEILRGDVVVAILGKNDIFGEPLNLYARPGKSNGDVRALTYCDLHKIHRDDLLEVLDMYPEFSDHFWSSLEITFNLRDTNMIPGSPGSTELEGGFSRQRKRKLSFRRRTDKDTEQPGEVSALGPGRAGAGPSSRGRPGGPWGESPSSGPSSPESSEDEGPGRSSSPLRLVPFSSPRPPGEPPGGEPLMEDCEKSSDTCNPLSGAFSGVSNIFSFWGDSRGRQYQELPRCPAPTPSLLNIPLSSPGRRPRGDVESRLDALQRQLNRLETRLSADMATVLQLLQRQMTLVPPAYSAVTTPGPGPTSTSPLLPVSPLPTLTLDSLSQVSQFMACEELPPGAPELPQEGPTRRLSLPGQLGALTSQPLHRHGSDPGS

[2] = Stability in plasma or brain homogenate; format: in vitro ADME; settings: incubated with plasma or brain homogenate for 4 h at 37°C
Description: Binding to human or mouse plasma proteins or mouse brain homogenate was determined by rapid equilibrium dialysis (RED) (Pierce, Rockford, IL) using a 48-well plate-based format according to the manufacturer's instructions. Briefly, test compound at the required concentrations was added to fresh human or mouse plasma (Bioreclamation, Liverpool, NY) or freshly prepared mouse brain homogenate. Duplicate aliquots of each sample were transferred into the sample chambers of the RED devices, and dialysis buffer (BupH PBS) was added to the buffer chambers. The plates were sealed and incubated at 37°C for 4 h. After dialysis, samples collected from the buffer and tissue chambers were treated with ice-cold methanol (3 volumes for plasma, 4 volumes for brain) to precipitate proteins. The treated samples were centrifuged for 10 min at 3×10^3 g at 15°C. The supernatants were assayed for test compound by LC-MS/MS. Calibration standards and quality control samples were prepared in matched matrix and assayed with samples. Values for unbound and bound fractions and mass balance were calculated. Concordance of binding for each batch of plasma was confirmed by assay of warfarin, imipramine and carbamezapine. […] The stability of each oxaborole in the CNS tissue was evaluated by incubation in fresh rodent brain homogenate. […] Supernatants from the incubation mixtures were analyzed for parent compound by LC-MS/MS.

Lipophilicity = format: physicochemical
From the text: as §1

[3] = Pharmacokinetics in uninfected mice; format: in vivo, mouse; settings: for Kp: read-out: brain to plasma ratio based on AUC0–24 h; for AUC(0-t): read-out: AUC0–24 h
Description: (§2) The blood distribution, CNS disposition and pharmacokinetics of SCYX-7158 were evaluated in infected or non-infected rodents following intravenous or oral administration of compounds. Pharmacokinetics and bioavailability of SCYX-7158 were also evaluated in non-infected beagle dogs and cynomolgus monkeys. In-life phases of non-infected rodent studies were performed at Vivisource (Waltham, MA); studies in non-naïve cynomolgus monkeys were performed by SNBL USA (Everett, WA). Male CD-1 mice (∼25 g), male Sprague-Dawley rats (∼225 g), or male cynomolgus monkeys (∼3–5 kg) were administered test article by either bolus intravenous injection (IV) or oral gavage. Animals in the IV groups received a single 2 mg/kg IV dose. Animals received oral doses of test articles as either single or twice daily doses ranging from 8 mg/kg to 50 mg/kg. All doses were administered as clear colorless solutions in either 50% (v/v) PEG 400: 20% (v/v) ethanol: 30% (v/v) carboxymethylcellulose (0.5% w/v in sterile water for injection) or 2% (v/v) ethanol: 5% (w/v) dextrose in sterile water for injection. […] For pharmacokinetic analysis, blood samples were collected from mice via cardiac puncture under terminal anaesthesia. Serial blood samples were collected from rats via a vascular access port located in the lateral saphenous vein. Mice and rats were euthanized in a CO2 chamber before collection of terminal blood samples or brain tissue. Blood samples were collected into polypropylene tubes containing K2EDTA anticoagulant and stored on ice until centrifuged for the preparation of plasma. Plasma was stored at −70°C. Whole brains were collected following decapitation, blotted dry, placed into polypropylene containers and then immediately frozen at approximately −70°C. CSF was collected from rats via cisterna magna puncture, placed in sterile polypropylene tubes, and stored at approximately −70°C. […] Treated samples were gently mixed at room temperature for 10 min, and then centrifuged at approximately 3000×g for 15 min at 15°C. The supernatants were transferred to 96-well plates or HPLC vials for analysis by LC-MS/MS. Pharmacokinetic parameters were calculated from composite mean plasma or tissue data using non-compartmental (oral and intravenous routes) and bi-exponential (intravenous route) analyses in Microsoft Excel.

[4] = Pharmacokinetics in uninfected rats; format: in vivo, rat; settings: male, Sprague-Dawley, rat
Description: as §2

T. b. brucei 427 = assay: Time-kill assay (ATP content, CellTiter Glo); format: cell-based
Description: The assessment of oxaborole-mediated killing of T. b. brucei in vitro was conducted using the CellTiter Glo kit (Promega, Inc., Madison, WI) to measure trypanosome ATP content as a real-time indicator of viability. Test compounds were serially diluted from 5 to 0.01 µg/mL into white wall-clear bottom 96-well plates (Corning Inc., Lowell, MA) containing HMI-9 media. 1×10^4 trypanosomes were added to each well. At specified intervals, the CellTiter Glo reagent was added to lyse the parasites and the plates were incubated for 10 min in the dark. Luminescence was quantified using an EnVision plate reader. All determinations were done in duplicate. Time-kill parameters were determined from plots of parasite viability versus incubation time for each concentration tested.

In the case of `CC1(C)OB(O)c2cc(NC(=O)c3ccc(F)cc3C(F)(F)F)ccc21` [SCYX-7158], the tolerability [1] is reported as “well tolerated”, the solubility (Aqueous solubility) is reported as 25 µM (≈ 9.18 µg/mL) and the “binding to hERG channel” value (hERG potassium channel) is reported as −6%. For the same compound, the stability [2] was “stable”, the logD (Lipophilicity) was 3.51 and the “brain AUC0–24 h” value ([3]; 13.4 mg/kg oral, brain) was 31400 ng·h/mL. For the same compound, the “time of Cmax” value ([3]; 13.4 mg/kg oral, plasma) was 6 h, the “brain AUC0–24 h” value ([3]; 26 mg/kg oral, brain) was 68000 ng·h/mL and the Kp ([3]; male, CD-1, mouse, brain and plasma, 13.4 mg/kg oral) was 0.38. The Kp ([3]; male, CD-1, mouse, brain/plasma, 26 mg/kg oral) was 0.6, the bioavailability ([3]; male, CD-1, mouse, plasma, 13.4 mg/kg oral, read-out: absolute oral bioavailability) was 55% and the CL/F ([3]; male, CD-1, mouse, plasma, 13.4 mg/kg oral, read-out: oral clearance (Cl/F) (converted)) was 2.72 mL/min/kg. For the same compound, the AUC(0-t) ([3]; male, CD-1, mouse, 4.3 mg/kg intravenous, plasma) was 48000 ng·h/mL, the half-life ([3]; male, CD-1, mouse, 4.3 mg/kg intravenous, plasma, read-out: apparent elimination half-life (t1/2) (converted)) was 26.6 h and the Cmax ([3]; male, CD-1, mouse, 13.4 mg/kg oral, brain, read-out: Cmax in brain tissue) was 4620 ng/mL. For the same compound, the AUC(0-t) ([3]; male, CD-1, mouse, 13.4 mg/kg oral, plasma) was 82000 ng·h/mL, the Cmax ([3]; male, CD-1, mouse, 13.4 mg/kg oral, plasma, read-out: Cmax) was 6960 ng/mL and the Cmax ([3]; male, CD-1, mouse, 26 mg/kg oral, brain, read-out: Cmax in brain tissue) was 8100 ng/mL. For the same compound, the AUC(0-t) ([3]; male, CD-1, mouse, 26 mg/kg oral, plasma) was 113000 ng·h/mL, the Cmax ([3]; male, CD-1, mouse, 26 mg/kg oral, plasma, read-out: Cmax) was 9800 ng/mL and the Kp ([4]; brain/plasma, 25 mg/kg oral, read-out: brain to plasma AUC0–24 h ratio) was 0.44. For the same compound, the CL/F ([4]; plasma, 25 mg/kg oral) was 1.53 mL/min/kg, the Cmax ([4]; 25 mg/kg oral (nominal), plasma, read-out: Cmax) was 18200 ng/mL and the AUC(0-t) ([4]; 25 mg/kg oral, CSF, read-out: AUC0–24 h in the CSF) was 14600 ng·h/mL. It also gave a Cmax ([4]; 25 mg/kg oral, CSF, read-out: Cmax in the CSF) of 1080 ng/mL, an AUC(0-t) ([4]; 25 mg/kg oral, brain, read-out: AUC0–24 h in the brain) of 129000 ng·h/mL and a Cmax ([4]; 25 mg/kg oral, brain, read-out: Cmax in the brain) of 8500 ng/mL. For the same compound, the Tmax ([4]; 25 mg/kg oral, plasma) was 8 h, the AUC(0-t) ([4]; 25 mg/kg oral, plasma, read-out: AUC0–24 h) was 291000 ng·h/mL and the Cmax ([4]; oral dose of 10 mg/kg SCYX-7158, plasma, read-out: Cmax) was 14300 ng/mL. For the same compound, the reduction in viability (T. b. brucei 427; within 8 h of exposure at 1.25 µg/mL (about 2 times the MIC)) was “greater than 50%” and the parasites killed (T. b. brucei 427; within 24 h of exposure, 1.25 µg/mL) was greater than 99%.
